Laboratory results published in publication PMC3276251 (Chemical Research in Toxicology, 2011).
“Also recorded” adds a separate entry of the source. Where two headings read alike, the source gives them in different places.

What was measured:
[1] = Isolated perfused rat kidney; type: in vitro ADME, Sprague-Dawley rats; details: for XR (excretion ratio = CLR/CLFILT) / CLFILT (filtration clearance) / Cumulative excretion (urinary) / Kidney accumulation / CL renal at 50 µM: 50 µM dose; for XR (excretion ratio = CLR/CLFILT): AUC method; for CLFILT (filtration clearance): GFR × fu; for Cumulative excretion (urinary) / Kidney accumulation: at 80 min post-dose; for Average amount in perfusate per 10-min period / Average amount in urine per 10-min period: 40–50, 50–60, 60–70 and 70–80 min periods, S.D. in parenthesis; for Concentration in perfusate / Concentration in urine: 70–80 min period, perfused with 50 µM AA-I; for Cumulative AA-I excretion in the urine (Xu): eight periods (0–80 min); for Average excretion ratio (XR): mean (S.D.) of 7 collection periods 10–80 min, XR = Cl/(fu × GFR), Cl = Cu × UFR/Cp; for Concentration of AA-I in the urines: last periods; for Concentration of AA-I in the urines / Concentration in the urines: more or less constant; for CL renal at 50 µM: male, Sprague-Dawley, rat, CLR (renal clearance), cumulative urinary excretion / AUC 0–80 min post-dose; for Concentration in the urines: 30–80 min
albumin in perfusate = albumin in perfusate (Bos taurus, UniProt P02769); assay: Perfusate binding by ultrafiltration; type: in vitro ADME
[2] = type: in vivo, male Wistar rats; details: 2 mg AA-I subcutaneously; for Average concentration in 24-hour collected urine: five rats, standard deviation in parentheses; for Amount in the 24 hr urine sample: Wistar rats; for Presence in collected rat urine: 24 hr urine

Chain of albumin in perfusate (P02769 25-607): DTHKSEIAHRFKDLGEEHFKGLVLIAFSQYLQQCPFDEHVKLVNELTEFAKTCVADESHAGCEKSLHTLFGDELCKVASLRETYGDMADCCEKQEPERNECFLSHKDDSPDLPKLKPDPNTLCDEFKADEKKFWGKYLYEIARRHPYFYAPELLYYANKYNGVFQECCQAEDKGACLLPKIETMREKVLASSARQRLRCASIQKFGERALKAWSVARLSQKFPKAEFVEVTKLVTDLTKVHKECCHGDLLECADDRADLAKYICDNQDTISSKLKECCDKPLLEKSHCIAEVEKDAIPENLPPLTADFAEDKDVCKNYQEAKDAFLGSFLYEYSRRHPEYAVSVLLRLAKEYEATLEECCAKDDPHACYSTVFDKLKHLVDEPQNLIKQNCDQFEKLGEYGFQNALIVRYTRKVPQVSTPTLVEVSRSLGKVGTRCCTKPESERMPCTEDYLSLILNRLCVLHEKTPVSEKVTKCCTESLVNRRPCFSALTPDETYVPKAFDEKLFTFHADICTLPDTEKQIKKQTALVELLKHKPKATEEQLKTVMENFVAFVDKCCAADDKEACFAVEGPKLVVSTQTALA

Molecule	Average amount in perfusate per 10-min period ([1]; Kidney A)	Average amount in urine per 10-min period ([1]; Kidney A)	Concentration in perfusate ([1]; Kidney A)	Concentration in urine ([1]; Kidney A)	Average excretion ratio (XR) ([1]; Kidney A)	Average amount in perfusate per 10-min period ([1]; Kidney B)	Average amount in urine per 10-min period ([1]; Kidney B)	Concentration in perfusate ([1]; Kidney B)	Concentration in urine ([1]; Kidney B)	Average excretion ratio (XR) ([1]; Kidney B)	Average concentration in 24-hour collected urine [2]	Amount in the 24 hr urine sample [2]	other results
COc1cccc2c1cc([N+](=O)[O-])c1c(C(=O)O)cc3c(c12)OCO3 [AA-I, 8-methoxy-6-nitro-phenanthro[3,4-d]-1,3-dioxole-5-carboxylic acid]	1441 (139) nanomoles	0.36 (0.05) nanomoles	16070 nM	480 nM	0.14 (0.05)	2447 (298) nanomoles	1.24 (0.32) nanomoles	23800 nM	940 nM	0.24 (0.05)	68 (17) µg/Lt	–	XR (excretion ratio = CLR/CLFILT) ([1]; Kidney A): 0.10; CLFILT (filtration clearance) ([1]; Kidney A): 0.0146 mL/min; Cumulative excretion (urinary) ([1]; Kidney A): 0.063 % dose; Kidney accumulation ([1]; Kidney A): 68 % dose; Cumulative AA-I excretion in the urine (Xu) ([1]; Kidney A): 2.5 µmol; XR (excretion ratio = CLR/CLFILT) ([1]; Kidney B): 0.26; CLFILT (filtration clearance) ([1]; Kidney B): 0.0138 mL/min; Cumulative excretion (urinary) ([1]; Kidney B): 0.162 % dose; Kidney accumulation ([1]; Kidney B): 53 % dose; Cumulative AA-I excretion in the urine (Xu) ([1]; Kidney B): 6.5 µmol; Perfusate concentration of AA-I ([1]; Rat A, at 75 min): ca. 16 µM; Concentration of AA-I in the urines ([1]; Rat A): ~500 nM; Perfusate concentration of AA-I ([1]; Rat B, at 75 min): ~23 µM; Concentration of AA-I in the urines ([1]; Rat B): ~1200 nM; Amounts of AA-I in perfusate and urines ([1]; end of the experiment (80 min)): less than 50 % of the dose; CL renal at 50 µM ([1]; Kidney A): 0.0014 mL/min; CL renal at 50 µM ([1]; Kidney B): 0.003 mL/min; Perfusate concentration of AA-I ([1]; sample taken at 15 min): ca. 28 µM; fraction unbound (albumin in perfusate): 0.0225
O=C(O)c1cc2c(c3c1c([N+](=O)[O-])cc1c(O)cccc13)OCO2 [AA-Ia, aristolochic acid Ia]	71.6 (31.0) nanomoles	0.72 (0.11) nanomoles	1240 nM	680 nM	12 (10)	38 (10) nanomoles	6.7 (2.6) nanomoles	420 nM	4380 nM	130 (77)	7900 (1300) µg/Lt	14.3 % of the dose	Concentration in the urines ([1]; rat A): ca. 1 µM; Concentration in the urines ([1]; rat B): ~7000 nM; fu (fraction unbound to albumin in perfusate) (albumin in perfusate; ultrafiltration, perfusate): 0.0220
O=C(O)c1cc2c(c3c1c([N+](=O)[O-])cc1c(OS(=O)(=O)O)cccc13)OCO2 [AA-Ia-O-S, 8-hydroxy-3,4-methylenedioxy-10-nitro-1-phenanthrenecarboxylic acid O-sulfate]	–	0.36 (0.05) nanomoles	–	360 nM	–	–	0.96 (0.28) nanomoles	–	740 nM	–	–	–	Identification in the perfusate ([1]; IPK): could not be identified; Presence in collected rat urine ([2]; listed as AA-Ia-O-S (5)): could only occasionally be observed by UV detection; also recorded: trace amounts
COc1cccc2c1cc1c3c(cc4c(c32)OCO4)C(=O)N1 [L-I, aristolactam I]	0.086 (0.062) nanomoles	0.029 (0.013) nanomoles	2 nM	53 nM	130 (85)	0.35 (0.05) nanomoles	0.034 (0.015) nanomoles	18 nM	55 nM	33 (22)	5.4 (3.8) µg/Lt	0.01 % of the dose	fraction unbound (albumin in perfusate): 0.0235
O=C1Nc2cc3c(OC4OC(C(=O)O)C(O)C(O)C4O)cccc3c3c4c(cc1c23)OCO4 [L-Ia-O-G, 8-hydroxy-3,4-methylenedioxy-10-amino-1-phenanthrene-carboxylic acid lactam O-glucuronide]	–	0.019 (0.007) nanomoles	–	31 nM	–	–	0.012 (0.009) nanomoles	14 nM	21 nM	–	66 (54) µg/Lt	0.09 % of the dose	–
O=C1Nc2cc3c(OS(=O)(=O)O)cccc3c3c4c(cc1c23)OCO4 [L-Ia-O-S, 8-hydroxy-3,4-methylenedioxy-10-amino-1-phenanthrenecarboxylic acid lactam O-sulfate]	–	–	–	–	–	–	–	–	–	–	53 (24) µg/Lt	0.09 % of the dose	–
O=C(O)c1cc2c(c3c1ccc1c(O)cccc13)OCO2 [compound 9, 3,4-methylenedioxy-8-hydroxy-1-phenanthrene-1-carboxylic acid]	–	–	–	–	–	–	–	–	–	–	–	–	Presence in collected rat urine [2]: could only occasionally be observed by UV detection
aristolactam Ia [L-Ia]	0.97 (0.52) nanomoles	0.10 (0.03) nanomoles	10 nM	160 nM	62 (50)	0.29 (0.09) nanomoles	0.089 (0.071) nanomoles	24 nM	–	160 (131)	1600 (678) µg/Lt	3.4 % of the dose	–
